Drawing on publication doi:10.1101/161430v2 (biorxiv, 2019), this text covers CC50, IC50 and Ki for two molecules.

Each structure is given as a SMILES string.

Data set [1] can be described thus: in vitro. To be noted: human.
In data set [2] the target is T1, human carboxylesterase 1 (CES1, hCES1) (Homo sapiens, UniProt P23141).
T1 sequence (P23141 18-567): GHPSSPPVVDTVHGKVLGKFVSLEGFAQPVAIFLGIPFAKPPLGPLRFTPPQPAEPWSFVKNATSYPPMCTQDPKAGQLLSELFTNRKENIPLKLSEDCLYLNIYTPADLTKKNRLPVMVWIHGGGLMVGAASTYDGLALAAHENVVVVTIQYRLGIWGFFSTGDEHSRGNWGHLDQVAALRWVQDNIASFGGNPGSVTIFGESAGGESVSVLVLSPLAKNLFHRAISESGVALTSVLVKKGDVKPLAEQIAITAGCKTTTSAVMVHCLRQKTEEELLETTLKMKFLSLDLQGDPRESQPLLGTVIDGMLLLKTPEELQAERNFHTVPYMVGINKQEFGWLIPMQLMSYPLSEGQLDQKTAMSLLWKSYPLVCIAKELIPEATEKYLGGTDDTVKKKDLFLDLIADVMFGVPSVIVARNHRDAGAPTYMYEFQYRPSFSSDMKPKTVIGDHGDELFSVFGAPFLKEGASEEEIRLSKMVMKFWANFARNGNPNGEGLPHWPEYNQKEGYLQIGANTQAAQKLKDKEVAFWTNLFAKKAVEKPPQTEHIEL
Kind of data set: biochemical.

The target of data set [3] is T2, human carboxylesterase 2 (CES2, hCES2) (Homo sapiens, UniProt O00748).
T2 sequence (O00748 27-559): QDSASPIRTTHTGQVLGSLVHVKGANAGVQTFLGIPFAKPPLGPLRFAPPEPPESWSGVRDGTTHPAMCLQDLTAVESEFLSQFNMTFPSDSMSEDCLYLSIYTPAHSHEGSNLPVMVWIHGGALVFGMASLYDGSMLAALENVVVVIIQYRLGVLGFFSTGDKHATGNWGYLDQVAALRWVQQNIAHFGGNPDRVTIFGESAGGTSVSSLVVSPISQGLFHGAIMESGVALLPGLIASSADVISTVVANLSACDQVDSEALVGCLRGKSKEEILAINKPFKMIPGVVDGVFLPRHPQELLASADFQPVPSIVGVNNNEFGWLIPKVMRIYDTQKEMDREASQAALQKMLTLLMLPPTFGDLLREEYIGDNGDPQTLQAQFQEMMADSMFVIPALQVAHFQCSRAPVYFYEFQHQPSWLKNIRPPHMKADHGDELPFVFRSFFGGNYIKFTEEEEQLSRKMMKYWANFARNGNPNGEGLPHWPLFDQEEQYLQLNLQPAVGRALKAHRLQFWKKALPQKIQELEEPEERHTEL
Kind of data set: competition with 4-nitrophenyl acetate, […] nm. Type of data set: biochemical.

Data set [4] has as its target T1, human carboxylesterase 1 (CES1, hCES1). Kind of data set: competition with 4-nitrophenyl acetate, […] nm. Type of data set: biochemical.
Data set [5] has as its target T3, human BChE (butyrylcholinesterase, BuChE) (Homo sapiens, UniProt P06276). Kind of data set: Ellman assay, […] nm. Type of data set: biochemical.
In data set [6] the target is T4, human AChE (acetylcholinesterase) (Homo sapiens, UniProt P22303). Kind of data set: biochemical.
Data set [7] has as its target T4, human AChE (acetylcholinesterase). Kind of data set: Ellman assay, […] nm. The class given is biochemical.
The target of data set [8] is T2, human carboxylesterase 2 (CES2, hCES2). Kind of data set: biochemical.
Data set [9] relates to HT29. Kind of data set: in vitro. Particulars: read-out: EC50 viability, 3.10; human, 48 h.
The test system of data set [10] is HeLa. Kind of data set: in vitro. To be noted: read-out: EC50 viability, 3.10; human, 48 h.
In data set [11] the test system is H23. Kind of data set: in vitro. To be noted: read-out: EC50 viability, 3.10; human, 48 h.
Data set [12] in a line: in vitro. Particulars: human, EC50 viability, 3.10.
The test system of data set [13] is Colo205. Kind of data set: in vitro. Particulars: read-out: EC50 viability, 3.10; human, 48 h.
For data set [14], the system named is MDA-MB-231. Kind of data set: in vitro. To be noted: read-out: EC50 viability, 3.10; human, 48 h.
Data set [15] has as its system HTC116. Kind of data set: in vitro. To be noted: read-out: EC50 viability, 3.10; human, 48 h.
For data set [16], the system named is PC3. Kind of data set: in vitro. Particulars: read-out: EC50 cmpd 3.10; human, 48 h.
The target of data set [17] is T3, human BChE (butyrylcholinesterase, BuChE). Kind of data set: biochemical.

T4 sequence (P22303 32-614): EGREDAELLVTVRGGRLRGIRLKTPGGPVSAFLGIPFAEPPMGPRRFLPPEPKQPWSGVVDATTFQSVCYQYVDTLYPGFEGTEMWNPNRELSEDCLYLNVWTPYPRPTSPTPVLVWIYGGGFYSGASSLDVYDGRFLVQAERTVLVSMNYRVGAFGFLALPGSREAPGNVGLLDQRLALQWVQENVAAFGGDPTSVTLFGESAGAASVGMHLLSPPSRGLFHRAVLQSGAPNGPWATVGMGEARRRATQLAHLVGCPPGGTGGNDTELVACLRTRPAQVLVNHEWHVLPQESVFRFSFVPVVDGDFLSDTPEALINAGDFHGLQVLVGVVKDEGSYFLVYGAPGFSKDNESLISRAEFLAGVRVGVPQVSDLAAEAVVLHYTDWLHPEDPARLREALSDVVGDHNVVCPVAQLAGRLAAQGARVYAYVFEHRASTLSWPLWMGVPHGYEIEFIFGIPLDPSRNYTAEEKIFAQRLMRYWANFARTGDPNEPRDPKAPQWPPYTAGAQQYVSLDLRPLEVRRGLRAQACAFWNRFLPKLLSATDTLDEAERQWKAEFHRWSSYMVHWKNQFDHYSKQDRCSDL
T3 sequence (P06276 29-602): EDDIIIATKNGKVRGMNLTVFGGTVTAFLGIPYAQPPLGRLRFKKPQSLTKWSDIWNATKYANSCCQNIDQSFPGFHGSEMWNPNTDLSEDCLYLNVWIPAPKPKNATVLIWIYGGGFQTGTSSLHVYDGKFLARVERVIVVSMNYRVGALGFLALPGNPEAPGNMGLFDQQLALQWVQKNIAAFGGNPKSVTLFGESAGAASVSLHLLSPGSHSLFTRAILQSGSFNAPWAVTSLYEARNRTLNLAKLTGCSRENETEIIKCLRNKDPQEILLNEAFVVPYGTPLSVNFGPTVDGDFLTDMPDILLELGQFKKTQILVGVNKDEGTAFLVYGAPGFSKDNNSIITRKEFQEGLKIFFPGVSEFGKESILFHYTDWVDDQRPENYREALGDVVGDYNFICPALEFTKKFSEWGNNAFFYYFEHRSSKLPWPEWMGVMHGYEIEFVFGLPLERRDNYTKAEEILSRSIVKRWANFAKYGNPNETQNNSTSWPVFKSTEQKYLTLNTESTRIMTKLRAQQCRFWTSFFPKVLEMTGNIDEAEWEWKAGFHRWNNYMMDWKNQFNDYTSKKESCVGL

`OB(O)c1cc(Br)cc(N2CCCC2)c1` [compound 3] showed a CC50 at 48 h in data set [1] (263t cells) of more than 100 µM. Also, the IC50 in [2] came out at 0.0074 µM; in [6], 61 µM; in [8], 0.037 µM. Besides, the Ki amounted to 0.021 µM in [3], 0.0041 µM in data set [4], 0.26 µM in [5] and 25 µM in [7].

Turning to `OB(O)c1cc(Br)cc(Oc2ccccc2)c1` [3.10, compound 3.10], the CC50 in data set [9], in [10], in data set [11], in [13], in data set [14] and in [15] was more than 100 µM throughout. Besides, the CC50 in data set [16] was more than 100 µM. Besides, the CC50 at 48 h in data set [12] and in data set [1] was more than 100 µM each time. In addition, the 50% inhibitory concentration (IC50) in data set [17] came out at 0.49 µM; in data set [2], 0.002 µM; in [6], 23 µM; in [8] it was 0.0038 µM. Moreover, the Ki turned out to be 0.0021 µM in data set [3], 0.0011 µM in data set [4], 0.094 µM in data set [5] and 9.3 µM in data set [7].
